In the experiment the test system is UMUC-10 cell line. Kind of experiment: Cell viability (CELLTITER-GLO) of bladder cancer cell line treated with erlotinib. In kind it is cell-based. Conditions: UMUC-10 bladder cancer cell line; 72 hours; 3-fold dilution series starting with a 5 uM dose; FIG. 11G. The text has this:
Bladder cancer cell lines were obtained from the American Type Culture Collection (ATCC, Manassas, Va.) or from the Deutsche Sammlung von Mikroorganismen and Zellkulturen GmbH (DSMZ, Braunschweig, Germany). Cell lines were archived at an early passage in the Genentech cell bank and authenticated either by a multiplex short tandem repeat assay or as previously described (O'Brien et al. Clin. Cancer Res. 16(14): 3670-3683, 2010). All cell lines were maintained in RPMI 1640 or DMEM supplemented with 10% fetal bovine serum (Sigma, St. Louis, Mo.), nonessential amino acids, and 2 mmol/L L-glutamine.
Details of its structure, selectivity, and biological properties have been previously described (Stamos et al. J. Biol. Chem. 277(48): 46265-46272, 2002). Cell viability studies were carried out as previously described (O'Brien et al. Clin. Cancer Res. 16(14): 3670-3683, 2010). Cells were plated in quadruplicate at a density of 2,500 cells per well in 384-well plates in normal growth medium and allowed to adhere overnight. […] Cell viability was measured 72 hours later using the […]-GLO® Luminescent Cell Viability Assay (Promega, Madison, Wis.). The percent viability at each concentration was calculated compared to the control treated only with DMSO.
On the technique in general: Cellular ATP, detected with luciferase, serves as a proxy for viable cell number.

As to `C#Cc1cccc(Nc2ncnc3cc(OCCOC)c(OCCOC)cc23)c1` [erlotinib, [6,7-bis(2-methoxyethoxy)-4-quinazolin-4-yl]-(3-ethynylphenyl) amine], the “growth inhibition (GI)” value is greater than 25%.

(Values after patent US20220267864A1, “THERAPEUTIC, DIAGNOSTIC, AND PROGNOSTIC METHODS FOR CANCER” (Genentech, Inc., priority 2014, published 2022).)
